Test results: patent US9675609B2 (priority 2015, dated 2017)
Read-outs that look alike come from different tables or passages of the source.

Experiments:
human tumor xenografts = human tumor xenografts in mice; Pantazis et al.; cited from earlier work
[1] = type: physicochemical; conditions: PSD of raw powders
[2] = PK absorption of CZ48 in dogs; type: in vivo; conditions: Dog, 400 mg/kg based on API content
Text: Tmax refers to time to reach Cmax.

human xenografts = assay: Raw CZ48 powders in cottonseed oil against 29 human xenografts in nude mice; type: in vivo; conditions: cancerous mice
Text: (§1) Raw or native CZ48 powders have been intensively tested against human xenografts grown in nude mice. […] Cmax refers to the peak plasma concentration of the drug after administration.

human HT29-colon tumor = conditions: nude mice; Cao et al. Cancer Research 2009; cited from earlier work
[3] = PK studies of raw CZ48 cottonseed oil suspension in mice; conditions: dose 100 mg/kg or higher
Text: as §1

[4] = Wall et al. 1969; Giovanella et al. 1991; cited from earlier work
[5] = analyte in blood, source CZ48 composite particles equivalent to 400 mg/kg API, single dose, female healthy mice, CPT is the metabolite

For `CC[C@@]1(O)C(=O)OCc2c1cc1n(c2=O)Cc2cc3c([N+](=O)[O-])cccc3nc2-1` [9NC, 9-nitrocamptothecin], the “times more potent than CPT” value (human tumor xenografts) is listed as 2-3 times.

For `CC[C@@]1(O)C(=O)OCc2c1cc1n(c2=O)Cc2cc3ccccc3nc2-1` [CPT, 20(S)-camptothecin, reference compound], the AUC0-24 [5] was 51.7 ng·h/mL, the Cmax [5] was 26.0 ng/mL and the Tmax [5] was 30 min.

For `CCC(=O)O[C@]1(CC)C(=O)OCc2c1cc1n(c2=O)Cc2cc3ccccc3nc2-1` [CZ48, camptothecin-20-O-propionate hydrate], the “D[4,3]” value [1] was 7.612 μm, the “d(0.1)” value [1] was 2.612 μm and the “d(0.5)” value [1] was 6.220 μm. The “d(0.9)” value [1] was 14.556 μm, the AUC0-24 [2] was 38.7 ng·h/mL and the Cmax [2] was 3.4 ng/mL. For the same compound, the Tmax [2] was 240 min, the “Cmax minimum requirement for a positive effect” value (human xenografts) was 100 ng/mL and the Tmax (Mouse, 400 mg/kg based on API content) was 60 min. The Tmax [5] was 30 min, the “dose needed to achieve the same result (good activity against HT29-colon tumor)” value (human HT29-colon tumor) was 1000 mg/kg and the Cmax [3] was “greater than 100 ng/ml”.

For `CC[C@@](O)(C(=O)[O-])c1cc2n(c(=O)c1CO)Cc1cc3ccccc3nc1-2.[Na+]` [sodium carboxylate salt], the “potency relative to native camptothecin with closed lactone ring” value [4] is given as 10%.
